Reference: ChEMBL document CHEMBL4808187, “Antiarrhythmic Hit to Lead Refinement in a Dish Using Patient-Derived iPSC Cardiomyocytes” (J Med Chem, 2021)
The source made the active and inactive calls. No cut-off for these calls is given here.

How the values were obtained:
iPSC-CM [1] = test: (§1) Antiarrhythmic activity in patient-derived hiPSC-CMs carrying LQT3 mutation assessed as cessation dose for cell beating; format: functional; details: Homo sapiens
[2] = (§2) Antiarrhythmic activity in patient-derived hiPSC-CMs carrying LQT3 mutation assessed as fold shortening of action potential duration relative to control; format: functional, Homo sapiens, iPSC-CM; note: test concentration or dose not given here
[3] = Antiarrhythmic activity in patient-derived hiPSC-CMs carrying LQT3 mutation assessed as shortening of action potential duration; format: functional, Homo sapiens; details: ipsc-cm
[4] = Antiarrhythmic activity in hiPSC-CMs assessed as dose for induction of early after depolarizations; details: human, ipsc-cm
[5] = Antiarrhythmic activity in hiPSC-CMs assessed as cessation dose of cell beating; details: human, ipsc-cm
[6] = (§3) Antiarrhythmic activity in patient-derived hiPSC-CMs carrying LQT3 mutation assessed as shortening dose of action potential; format: functional, Homo sapiens, iPSC-CM
[7] = Antiarrhythmic activity in hiPSC-CMs assessed as prolongation of action potential; parameters: species or system Homo sapiens, iPSC-CM
iPSC-CM [8] = test: as §2; format: functional; details: Homo sapiens
iPSC-CM [9] = test: as §3; format: functional; details: Homo sapiens
[10] = as §1; format: functional, Homo sapiens, iPSC-CM
[11] = Potency index, ratio of mexiletine EC50 to test compound EC50 for antiarrhythmic activity in hiPSC-CMs expressing LQT3 mutation assessed as shortening of action potential duration; format: functional, Homo sapiens, iPSC-CM
[12] = Antiarrhythmic activity in hiPSC-CMs assessed as fold prolongation of action potential relative to control; details: human, ipsc-cm
Homo sapiens = species: Homo sapiens; test: Selectivity index, ratio of IC50 for potassium channel (unknown origin) expressed in CHO cells assessed as reduction in potassium current to IC50 for sodium channel (unknown origin) expressed in HEK cells assessed as reduction in late inward sodium current
[13] = Inhibition of sodium channel (unknown origin) expressed in HEK cells assessed as reduction in peak sodium current by automated patch clamp method; format: cell-based; details: Homo sapiens, HEK293
[14] = Inhibition of potassium channel (unknown origin) expressed in CHO cells assessed as reduction in potassium current by automated patch clamp method; format: cell-based
[15] = Inhibition of sodium channel (unknown origin) expressed in HEK cells assessed as reduction in late inward sodium current by automated patch clamp method; format: cell-based; details: Homo sapiens, HEK293
[16] = Homo sapiens, iPSC-CM, read-out: EC50

Row | SMILES | Activity (iPSC-CM [1]) | fold change (FC) [2] | EC50 ([3]; read-out: EC50) [nM] | Activity [4] | Activity [5] | Activity [6] [µM] | EC50 [7, 16] [µM] | fold change (FC) (iPSC-CM [8]) | EC50 [3] | Activity (iPSC-CM [9]) | EC50 ([7]; ipsc-cm) | Activity [10] [µM] | Ratio EC50 [11] | Activity [12] | Ratio IC50 (Homo sapiens) | IC50 [13] [µM] | IC50 [14] [µM] | IC50 [15] [µM] | fold change (FC) [12]
1 | Cc1ccccc1OCC(C)N.Cl (stereo unspecified) | inactive | 1.284 | < 800 | 200 µM | Not Active | 22 | 83.9 | – | – | – | – | – | – | – | – | – | – | – | –
2 | CC(=O)NC(C)COc1c(C)cccc1C.Cl (stereo unspecified) | inactive | – | – | Not Active | Not Active | – | – | inactive | Not Active | inactive | Not Active | – | – | – | – | – | – | – | –
3 | Cc1cccc(C)c1OCC(C)NCCc1ccccc1.Cl (stereo unspecified) | – | 1.706 | – | 22 µM | 133 µM | 2.5 | 2.5 | – | Not Active | – | – | 7.4 | 28 | – | – | – | – | – | –
4 | CCNC(COc1cccc(C)c1C)c1ccccc1.Cl (stereo unspecified) | – | – | – | Not Active | 133 µM | – | – | inactive | Not Active | inactive | – | 22 | – | Not Active | – | – | – | – | –
5 | CCc1ccccc1OCC(C)N.Cl (stereo unspecified) | inactive | 1.118 | 6000 | Not Active | Not Active | 22 | 23.5 | – | – | – | – | – | – | – | – | – | – | – | –
6 | COc1ccc(C(N)COc2c(C)cccc2C)cc1.Cl (stereo unspecified) | – | 1.425 | – | Not Active | 66 µM | 7.4 | – | – | Not Active | – | Not Active | 66 | 7 | – | – | – | – | – | –
7 | Cc1cccc(C)c1OCC(N)c1ccc(C(F)(F)F)cc1.Cl (stereo unspecified) | – | 1.48 | 1400 | Not Active | 66 µM | 22 | – | – | – | – | Not Active | 66 | 7 | – | – | – | – | – | –
8 | Cc1cccc(OCC(N)c2ccccc2)c1C.Cl (stereo unspecified) | – | 1.406 | – | Not Active | 133 µM | 22 | – | – | Not Active | – | Not Active | 66 | – | – | 8.9 | 10.9 | 9.2 | 1.03 | –
9 | COc1ccccc1OCC(C)N.Cl (stereo unspecified) | inactive | – | – | 133 µM | Not Active | – | 97.8 | inactive | Not Active | inactive | – | – | – | – | – | – | – | – | –
10 | COCCNC(COc1cc(C)cc(C)c1)c1ccccc1.Cl (stereo unspecified) | – | – | – | Not Active | 200 µM | – | – | inactive | Not Active | inactive | – | 200 | – | Not Active | 6.8 | 38 | 5.1 | 0.753 | –
11 | Cc1cccc(C)c1OCC(NC(=O)c1ccccc1)c1ccccc1 (stereo unspecified) | inactive | 1.64 | 800 | Not Active | Not Active | 66 | – | – | – | – | – | – | – | Not Active | – | – | – | – | –
12 | CCCNC(COc1cccc(C)c1C)c1ccccc1.Cl (stereo unspecified) | – | – | – | Not Active | Not Active | – | – | inactive | Not Active | inactive | – | 133 | – | Not Active | – | – | – | – | –
13 | Cc1cc(C)cc(OCC(C)N)c1.Cl (stereo unspecified) | – | 1.232 | 4500 | Not Active | Not Active | 66 | 7.7 | – | – | – | – | 200 | – | – | 2.84 | 154 | 49.3 | 17.3 | –
14 | CC(N)COc1ccccc1C(F)(F)F.Cl (stereo unspecified) | inactive | 1.375 | – | Not Active | Not Active | 133 | – | – | Not Active | – | Not Active | – | – | – | – | – | – | – | –
15 | CNC(C)COc1c(C)cccc1C.Cl (stereo unspecified) | – | – | 1500 | 22 µM | 66 µM | – | 7.8 | – | – | – | – | 133 | – | – | 1.2 | 124 | 44.1 | 36 | –
16 | Cc1cccc(C)c1OCC(C)Nc1ccccc1.Cl (stereo unspecified) | inactive | – | – | Not Active | Not Active | – | – | – | Not Active | inactive | Not Active | – | – | – | – | – | – | – | –
17 | Cc1cccc(C)c1OCC(N)C1CC1.Cl (stereo unspecified) | – | 1.162 | 800 | 66 µM | Not Active | 22 | 8 | – | – | – | – | 200 | – | – | 4.1 | 130 | 30.1 | 7.4 | 2.805
18 | CCNC(C)COc1c(C)cccc1C.Cl (stereo unspecified) | inactive | – | – | 133 µM | Not Active | – | 21.5 | – | Not Active | inactive | – | – | – | – | – | – | – | – | –
19 | Cc1cc(C)cc(OCC(N)C2CC2)c1.Cl (stereo unspecified) | – | 1.15 | 2060 | 66 µM | 200 µM | 22 | – | – | – | – | – | 200 | – | – | 4.6 | 76.8 | 45.8 | 10 | 2.12
20 | Cc1cccc(C)c1OCC(N)C(C)(C)C.Cl (stereo unspecified) | – | 1.182 | < 800 | 7.4 µM | Not Active | 2.5 | – | – | – | – | Not Active | 22 | – | – | 2.42 | 91.4 | 27.6 | 11.4 | –
21 | Cl.OCCNC(COc1cc(C(F)(F)F)cc(C(F)(F)F)c1)c1ccccc1 (stereo unspecified) | – | 1.5 | – | Not Active | 66 µM | 7.4 | – | – | Not Active | – | – | 22 | – | Not Active | 16.5 | 45.1 | 16.8 | 1.02 | –
22 | Cc1cccc(OCC(C)N)c1.Cl (stereo unspecified) | inactive | 1.418 | – | 66 µM | Not Active | 200 | 27.3 | – | Not Active | – | – | – | – | – | – | – | – | – | –
